For eleven molecules, IC50 results are on record in patent publication US11161830B2, “4-pyridone compound or salt thereof, and pharmaceutical composition and formulation including same” (priority 2017, dated 2021).

pIC50: −log10 of the molar value. Read-outs that look alike come from different tables or passages of the source.

Common to all, as to assay type: cell-based, hepatitis B virus
Test [1] has as its system HBV. In words: Test Example 1-1: anti-HBV assay in HepG2.2.15 cells (test solution 200 μL/well). The settings on record: Hepatitis B virus, culture supernatant. The procedure: (§1) Using HepG2.2.15 cells (Proc. Natl. Acad. Sci. USA, 84, 1005-1009, 1987) which have an HBV genome introduced into a hepatoblastoma cell line, HepG2, and persistently produce a virus, the anti-HBV activity of the representative compounds was evaluated in the following procedure.
(§2) The following was used as a medium:
(§3) DMEM/F-12, GlutaMAX (manufactured by Invitrogen)+5 μg/mL insulin (manufactured by Wako)+1% penicillin/streptomycin (manufactured by Sigma)+10 mmol/L HEPES (manufactured by Sigma)+50 μmol/L hydrocortisone (manufactured by Sigma)+10% FBS
(§4) A mixture of a test compound with dimethyl sulfoxide (DMSO) was further added to the medium to obtain a final concentration of DMSO of 0.25% (v/v), and thus, test solutions containing the test compound at various concentrations were prepared. In addition, a test solution obtained by adding DMSO alone to the medium to obtain a final concentration of 0.25% (v/v) was prepared as a control without addition of a drug.
(§5) (1) The HepG2.2.15 cells were suspended in the medium to prepare a. HepG2.2.15 cell suspension at 4×10^5 cells/mL. The suspension was seeded in a 96-well microtiter plate (100 μL/well) and the plate was incubated in a 5% CO2 incubator at 37° C. for 2 days.
(§6) (2) The culture supernatant was removed and the cells were washed twice with PBS (−) (100 μL/well).
(§7) (3) The test solution (200 μL/well) was added to the plate of (2) and the plate was incubated in a 5% CO2 incubator at 37° C. for 4 days.
(§8) (4) The culture supernatant was removed, the test solution (200 μL/well) was added again to the plate, and the plate was incubated in a 5% CO2 incubator at 37° C. for 3 days.
(§9) (5) The culture supernatant was collected and treated with a mixture of Buffer AL (manufactured by QIAGEN) and Proteinase K (manufactured by Invitrogen). The amount of DNA of HBV (HBV-DNA) in the obtained solution was absolutely quantified by a real-time PCR method. In addition, HBsAg (hepatitis B surface antigen) in the culture supernatant was absolutely quantified by chemiluminescent enzyme immunoassay using Lumipulse (registered trademark) HBsAg-HQ (manufactured by Fujirebio Inc.). The relative viral load (%) of a well with the compound added to a well without the compound added was calculated. An IC50 of the compound was calculated using a FORECAST function (linear regression method) of Microsoft Office Excel 2007 by plotting the logarithm of the concentration against the relative viral load as a real number.
(§10) The IC50 of HBV-DNA was defined as a concentration (or a logarithm dilution of the culture supernatant) of the compound, in which the amount of HBV-DNA is reduced by 50% as compared a control without the compound added.
(§11) In addition, the IC50 of HBsAg was defined as a concentration (or a logarithm dilution of the culture supernatant) of the compound, in which the amount of HBsAg is reduced by 50% as compared a control without the compound added.

Test [2] concerns HBV (genotype AeUS). Description: Test Example 2-1: anti-HBV assay in PXB-cells (fresh human hepatocytes). The settings on record: Hepatitis B virus, Hepatocyte, PXB-cells infected with HBV genotype AeUS, culture supernatant on day 32 post infection. The procedure: Using fresh human hepatocytes (PXB-cells, manufactured by PhenixBio Co., Ltd.) collected from a PXB mouse (a chimeric mouse with human hepatocytes), the anti-HBV activity of the representative compounds was evaluated in the following procedure.
as §2
DMEM (manufactured by Sigma)+0.25 μg/mL insulin (manufactured by Wako)+1% penicillin/streptomycin. (manufactured by Sigma)+20 mmol/L HEPES (manufactured by Sigma)+15 μg/mL L-proline (manufactured by Sigma)+50 nmol/L dexamethasone (manufactured by Sigma)+5 ng/mL EGF (manufactured by Peprotech)+0.1 mmol/L ascorbic acid 2-phosphate (manufactured by Wako)+10% FBS+2% DMSO
Each of the test compounds) was further added to the medium to prepare a test solution containing each of the test compounds at various concentrations.
(1) PXB-cells seeded at a seeding density of 2.1×10^5 cells/cm^2 in a 96-well microliter plate were incubated in a 5% CO2 incubator at 37° C. until a day on which the cells were infected.
(2) HBV (genotype AeUS) derived from a PXB mouse serum was suspended in the medium containing 4% PEG-8000, and added to the plate of (1) at about 10 copies/cell such that the PXB cells were infected (100 μL/well), and the plate was incubated in a 5% CO2 incubator at 37° C. for 1 day.
(3) The culture supernatant on day 1 post infection was removed and the cells were washed three times with DMEM containing 10% FBS and 1% penicillin/streptomycin. Then, the medium was added to the plate (100 μL/well) and the plate was incubated in a 5% CO2 incubator at 37° C. for 1 day.
(4) The culture supernatant on day 2 post infection was removed and the cells were washed three times with DMEM containing 10% FBS and 1% penicillin/streptomycin. Then, the medium was added to the plate (100 μL/well) and the plate was incubated in a 5% CO2 incubator at 37° C. for 5 days.
(5) The culture supernatant on day 7 post infection was removed, the medium was added to the plate (100 μL/well), and the plate was incubated in a 5% CO2 incubator at 37° C. for 5 days.
(6) The culture supernatant on day 12 post infection was removed, the medium was added to the plate (100 μL/well), and the plate was incubated in a 5% CO2 incubator at 37° C. for 5 days.
(7) The culture supernatant on day 17 post infection was removed, the test solution was added to the plate (100 μL/well), and the plate was incubated in a 5% CO2 incubator at 37° C. for 5 days. As a control without the compound added, the medium was added to the plate (100 μL/well) and the plate was incubated in a 5% CO2 incubator at 37° C. for 5 days.
(8) The culture supernatant on day 22 post infection was removed, the test solution was added to the plate (100 μL/well), and the plate was incubated in a 5% CO2 incubator at 37° C. for 5 days. As a control without the compound added, the medium was added to the plate (100 μL/well) and the plate was incubated in a 5% CO2 incubator at 37° C. for 5 days.
(9) The culture supernatant on day 27 post infection was removed, the test solution was added to the plate (100 μL/well), and the plate was incubated in a 5% CO2 incubator at 37° C. for 5 days. As a control without the compound added, the medium was added to the plate (100 μL/well) and the plate was incubated in a 5% CO2 incubator at 37° C. for 5 days.
(10) The culture supernatant on day 32 post infection was collected.
(11) The collected culture supernatant on day 32 post infection was purified with a QIAamp (registered trademark) DNA Blood Mini Kit (manufactured by QIAGEN). The amount of HBV-DNA in the obtained solution was absolutely quantified by a real-time PCR method. In addition, the amount of HBsAg in the culture supernatant was absolutely quantified by chemiluminescent enzyme immunoassay using Lumipulse (registered trademark) HBsAg-HQ (manufactured by Fujirebio Inc.). A relative viral load (%) with respect to a control without the compound added was each calculated. […]

Test [3] relates to HBV. In words: Test Example 1-2: anti-HBV assay in HepG2.2.15 cells (test solution 100 μL/well). The settings on record: Hepatitis B virus, culture supernatant. The procedure:
as §1, §2, §3, §4, §5, §6, §7, §8, §9, §10, §11
The test was performed by the same method as in Test Example 1-1 except that the amounts of the test solutions of (3) and (4) of Test Example 1-1 was changed to 100 μL/well.

On to `O=C(O)c1cn(-c2ccc3nc(NCc4ncccn4)sc3c2)c(-c2ccc(N3CCCC3)cc2)cc1=O` [Example 3-13, 4-oxo-1-(2-((pyrimidin-2-ylmethyl)amino)benzo[d]thiazol-6-yl)-6-(4-(pyrrolidin-1-yl)phenyl)-1,4-dihydropyridine-3-carboxylic acid], for which the pIC50 in test [1] (read-out: IC50 HBV-DNA) is 8.41; in test [1] (read-out: IC50 HBsAg), 8.29; in test [2] (read-out: IC50 HBV-DNA) it was over 8.10; in test [2] (read-out: IC50 HBsAg), 7.41.
For `Cc1nc2ccc(-n3cc(C(=O)O)c(=O)cc3-c3ccc(N4CCCC4)c(Br)c3)cc2s1` [Example 5-1, 6-(3-bromo-4-(pyrrolidin-1-yl)phenyl)-1-(2-methylbenzo[d]thiazol-6-yl)-4-oxo-1,4-dihydropyridine-3-carboxylic acid] the same measures were 8.43, 8.19, 6.70 and 6.82.
Take `O=C(O)c1cn(-c2ccc3nc(N4CCOCC4)sc3c2)c(-c2ccc(N3CCCC3)c(F)c2)cc1=O` [Example 7, 6-(3-Fluoro-4-(pyrrolidin-1-yl)phenyl)-1-(2-morpholinobenzo[d]thiazol-6-yl)-4-oxo-1,4-dihydropyridine-3-carboxylic acid]: the pIC50 in test [1] (read-out: IC50 HBV-DNA) is 8.85; in test [1] (read-out: IC50 HBsAg) it was 8.51; in test [2] (read-out: IC50 HBV-DNA), 7.92; in test [2] (read-out: IC50 HBsAg) it was 7.39.
Regarding `COCCO[C@@H]1CCN(c2ccc(-c3cc(=O)c(C(=O)O)cn3-c3ccc4nc(C)sc4c3)cc2)C1` [Example 9, (R)-6-(4-(3-(2-Methoxyethoxy)pyrrolidin-1-yl)phenyl)-1-(2-methylbenzo[d]thiazol-6-yl)-4-oxo-1,4-dihydropyridine-3-carboxylic acid], the pIC50 in test [1] (read-out: IC50 HBV-DNA) was 7.26; in test [1] (read-out: IC50 HBsAg), 7.62; in test [2] (read-out: IC50 HBV-DNA), 6.24; in test [2] (read-out: IC50 HBsAg), 6.48.
As for `CO[C@@H]1CCN(c2ccc(-c3cc(=O)c(C(=O)O)cn3-c3ccc4nc(N5CCOCC5)sc4c3)cc2Cl)C1` [Example 11, (R)-6-(3-Chloro-4-(3-methoxypyrrolidin-1-yl)phenyl)-1-(2-morpholinobenzo[d]thiazol-6-yl)-4-oxo-,4-dihydropyridine-3-carboxylic acid], the negative-log IC50 (pIC50) was 7.89 in test [1] (read-out: IC50 HBV-DNA), 8.31 in test [1] (read-out: IC50 HBsAg), 7.55 in test [2] (read-out: IC50 HBV-DNA) and 7.09 in test [2] (read-out: IC50 HBsAg).
For `Cc1nc2ccc(-n3cc(C(=O)O)c(=O)cc3-c3ccc(N4CCCC4)c(C#N)c3)cc2s1` [Example 16, 6-(3-Cyano-4-(pyrrolidin-1-yl)phenyl)-1-(2-methylbenzo[d]thiazol-6-yl)-4-oxo-1,4-dihydropyridine-3-carboxylic acid] the same measures were 7.74, 7.82, 6.33 and 6.72.
In the case of `COCCO[C@@H]1CCN(c2ccc(-c3cc(=O)c(C(=O)O)cn3-c3ccc4nc(N5CC[C@H](OC)C5)sc4c3)cc2)C1` [Example 21, 6-(4-((R)-3-(2-Methoxyethoxy)pyrrolidin-1-yl)phenyl)-1-(2-((S)-3-methoxypyrrolidin-1-yl)benzo[d]thiazol-6-yl)-4-oxo-1,4-dihydropyridine-3-carboxylic acid], the pIC50 in test [3] (read-out: IC50 HBV-DNA) is 8.08; in test [3] (read-out: IC50 HBsAg), 7.77.
The like results for `COCCO[C@H]1CCN(c2ccc(-c3cc(=O)c(C(=O)O)cn3-c3ccc4nc(N5CCOCC5)sc4c3)cc2)C1` [Example 22-1, (S)-6-(4-(3-(2-methoxyethoxy)pyrrolidin-1-yl)phenyl)-1-(2-morpholinobenzo[d]thiazol-6-yl)-4-oxo-1,4-dihydropyridine-3-carboxylic acid] were, in that order, 7.36 and 7.05.
For `COCCO[C@H]1CCN(c2ccc(-c3cc(=O)c(C(=O)O)cn3-c3ccc4nc(N5CCC[C@@H]5COC)sc4c3)cc2)C1` [Example 22-2, 6-(4-((S)-3-(2-methoxyethoxy)pyrrolidin-1-yl)phenyl)-1-(2-((R)-2-(methoxymethyl)pyrrolidin-1-yl)benzo[d]thiazol-6-yl)-4-oxo-1,4-dihydropyridine-3-carboxylic acid] the same measures were 8.00 and 7.66.
The like results for `CO[C@@H]1CCN(c2ccc(-c3cc(=O)c(C(=O)O)cn3-c3ccc4nc(N5CC[C@H](N6CCOCC6)C5)sc4c3)cc2F)C1` [Example 23-1, 6-(3-fluoro-4-((R)-3-methoxypyrrolidin-1-yl)phenyl)-1-(2-((S)-3-morpholinopyrrolidin-1-yl)benzo[d]thiazol-6-yl)-4-oxo-1,4-dihydropyridine-3-carboxylic acid] were, in that order, 8.77 and 8.37.
As to `CO[C@@H]1CCN(c2ccc(-c3cc(=O)c(C(=O)O)cn3-c3ccc4nc(N5CC(OC(F)F)C5)sc4c3)cc2F)C1` [Example 23-2, (R)-1-(2-(3-(difluoromethoxy)azetidin-1-yl)benzo[d]thiazol-6-yl)-6-(3-fluoro-4-(3-methoxypyrrolidin-1-yl)phenyl)-4-oxo-1,4-dihydropyridine-3-carboxylic acid], the values for the pIC50 in test [3] (read-out: IC50 HBV-DNA) and in test [3] (read-out: IC50 HBsAg) were 9.02 and 8.55, respectively.

Broadly, the pIC50 is the IC50 on a negative log10 scale, so that one unit is a factor of ten.
